Read-outs that look alike come from different tables or passages of the source.
Columns and labels:
[1] = test system: mouse in oxygen-short state; assay: Activity on survival time of mouse in oxygen-short state; assay type: in vivo; conditions: for Survival Time: 30 minutes before carbon dioxide, Control 195.8 ± 3.7
Description: Activity on survival time of mouse in oxygen-short state
Mice were put in a plastic box of 150 cm each in length, width and height, and carbon dioxide was injected from a lower inlet at a rate of 500 ml/min. The period from the start of injection to the respiratory standstill of mice was counted as the survival time. (±) Rolipram, (+) rolipram, and (-) rolipram were all intraperitoneally administered to mice 30 minutes before carbon dioxide was loaded.

[2] = test system: memory and learning deficits; assay: overall conclusion from the experimental results using mice and rats; assay type: in vivo
[3] = test system: cerebral ischemia-induced learning and memory disorders; assay: 3-panel runway device: effect on cerebral ischemia-induced learning and memory disorders; assay type: in vivo, rat; conditions: for number of incorrect responses, Session 1 / number of incorrect responses, Session 2 / number of incorrect responses, Session 3 / number of incorrect responses, Session 4 / number of incorrect responses, Session 5 / number of incorrect responses, Session 6: cerebral ischemia; for minimal effective dose: ip, i.p., read-out: dose improving the disorders induced by cerebral ischemia
Description: A 3-panel runway device (length: 175 cm, width: 36 cm and height: 25 cm) comprises a start box, four gateways equipped with three-panel gates and a goal box in which feed are put as the reward. The panel gates were designed so that only one of three panel gates in each gateway might be passable. Training of hungry rats to go out of the start box, reach the goal box and take the feed was made by continuous 6 sessions in 2 minute intervals. The training was carried out every day with the passable panel gate being varied every day. […] The rats are used for the following test. According to the method of Pulsinelli et al., the both vertebral arteries of rat were burnt and cut under anesthesia with pentobarbital. After 24 hours, the whole carotid artery on both sides was blocked for 5 minutes under no anesthesia.

[4] = test system: space recognition disorders induced by scopolamine; assay: Test on memory and study of rat using radial maize (scopolamine-induced space recognition disorder); assay type: in vivo
Text: Test on memory and study of rat using radial maize
Rats under feed control were put at the central platform (diameter: 25 cm) of an 8-way radial maize (length and width of arm: 48 cm and 10 cm, 40 cm, height from the ground) and trained until they could efficiently take the feed put on the tip of the arm. Numbers of correct choices for the arms where the rats reached for the first time, number of incorrect choices for the arms where the rats reached two or more times and running time until completion of the session were measured for 10 minutes at maximum. When the results with not less than 7 correct choices were shown in 3 continuous sessions it was estimated that acquirement of space recognition was completed. Space recognition disorder was induced in the rats by administering 0.5 mg/kg of scopolamine (i.p., 30 minutes before the session) to study each activity of (±) rolipram, (+) rolipram and (-) rolipram (all administered p.o., 60 minutes before the session).

mouse = mouse acute toxicity test of rolipram; conditions: in vivo
Text: (§1) The results of mouse acute toxicity test of rolipram are as follows.

[5] = mouse acute toxicity test of rolipram; conditions: in vivo, read-out: ED50 Value (acute toxicity)
Text: as §1

[6] = test system: memory and learning disorders induced by scopolamine; assay: 3-panel runway device: activity against memory and learning disorders induced by scopolamine; assay type: in vivo, rat
Description: A 3-panel runway device (length: 175 cm, width: 36 cm and height: 25 cm) comprises a start box, four gateways equipped with three-panel gates and a goal box in which feed are put as the reward. The panel gates were designed so that only one of three panel gates in each gateway might be passable. Training of hungry rats to go out of the start box, reach the goal box and take the feed was made by continuous 6 sessions in 2 minute intervals. The training was carried out every day with the passable panel gate being varied every day. In the test, (1) time taken for the rat to reach the goal box and take the feed after it left the start box, and (2) the number of incorrect choices that the rat made trying to pass the impassable gate were recorded and measured in each session. Rats satisfying for consecutive 3 days the criterion that the total time for 6 sessions in one day was within 60 seconds, the total number of incorrect choices was under 12 and the number of incorrect responses in sessions 2 to 6 was not greater than 8 were estimated to have completely learned. The rats are used for the following test.

[7] = 0.02 mg/kg p.o., 60 minutes before session, + scopolamine 0.5 mg/kg i.p.
[8] = 0.1 mg/kg i.p. + scopolamine 0.56 mg/kg
[9] = 10 mg/kg p.o., 60 minutes before session, + scopolamine 0.5 mg/kg i.p.
[10] = 1 mg/kg i.p. + scopolamine 0.56 mg/kg
[11] = 0.01 mg/kg p.o., 60 minutes before session, + scopolamine 0.5 mg/kg i.p.
[12] = 0.032 mg/kg i.p. + scopolamine 0.56 mg/kg
[13] = scopolamine alone 0.56 mg/kg i.p.

COc1ccc(C2CNC(=O)C2)cc1OC1CCCC1 (racemic) [(±) Rolipram]
Survival Time ([1]; 1.0 mg/kg i.p.): 220.3 ± 6.9 s | minimal effective dose ([1]; Mus musculus, ip, mouse, i.p., read-out: dose showing the action of prolonging the survival time): 1 mg/kg | activity of improving memory and learning deficits [2]: showed the activity of improving memory and learning deficits | potency order in improving memory and learning deficits [2]: more potent order of (-) rolipram, (±) rolipram and (+) rolipram | number of incorrect responses, Session 1 ([3]; 0.1 mg/kg i.p.): 4.25 | number of incorrect responses, Session 2 ([3]; 0.1 mg/kg i.p.): 3.00 | number of incorrect responses, Session 3 ([3]; 0.1 mg/kg i.p.): 2.88 | number of incorrect responses, Session 4 ([3]; 0.1 mg/kg i.p.): 1.88 | number of incorrect responses, Session 5 ([3]; 0.1 mg/kg i.p.): 1.38 | number of incorrect responses, Session 6 ([3]; 0.1 mg/kg i.p.): 1.13 | minimal effective dose ([3]; rat): 0.1 mg/kg | Number of Correct Choice [4, 7]: 6.9 ± 0.2 | Number of Incorrect Choice [4, 7]: 2.3 ± 1.1 | minimal effective dose ([4]; Rattus norvegicus, po, rat, p.o., read-out: dose showing the activity of improving space recognition disorders induced by scopolamine): 0.02 mg/kg | safety (mouse): highly safe | LD50 ([5]; ip): 1500 mg/kg | LD50 ([5]; po): 4000 mg/kg | number of incorrect responses, Session 1 [6, 8]: 5.67 | number of incorrect responses, Session 2 [6, 8]: 3.00 | number of incorrect responses, Session 3 [6, 8]: 1.67 | number of incorrect responses, Session 4 [6, 8]: 1.00 | number of incorrect responses, Session 5 [6, 8]: 1.00 | number of incorrect responses, Session 6 [6, 8]: 1.17 | minimal effective dose ([6]; Rattus norvegicus, ip, rat, i.p., read-out: dose inhibiting the increase in the number of incorrect responses induced by scopolamine): 0.1 mg/kg

COc1ccc(C2CNC(=O)C2)cc1OC1CCCC1 (single isomer, unassigned; (+)) [(+) Rolipram]
Survival Time ([1]; 3.0 mg/kg i.p.): 217.2 ± 5.3 s | dose showing the action of prolonging the survival time ([1]; mouse, i.p.): 3.0 mg/kg | activity of improving memory and learning deficits [2]: showed the activity of improving memory and learning deficits | potency order in improving memory and learning deficits [2]: more potent order of (-) rolipram, (±) rolipram and (+) rolipram | number of incorrect responses, Session 1 ([3]; 1 mg/kg i.p.): 5.33 | number of incorrect responses, Session 2 ([3]; 1 mg/kg i.p.): 3.67 | number of incorrect responses, Session 3 ([3]; 1 mg/kg i.p.): 2.00 | number of incorrect responses, Session 4 ([3]; 1 mg/kg i.p.): 2.83 | number of incorrect responses, Session 5 ([3]; 1 mg/kg i.p.): 1.67 | number of incorrect responses, Session 6 ([3]; 1 mg/kg i.p.): 1.50 | improvement of the disorders induced by cerebral ischemia ([3]; rat, 1 mg/kg i.p.): no improvement | Number of Correct Choice [4, 9]: 7.2 ± 0.3 | Number of Incorrect Choice [4, 9]: 2.3 ± 1.6 | dose showing the activity of improving space recognition disorders induced by scopolamine ([4]; rat, p.o.): 10 mg/kg | safety (mouse): highly safe | LD50 ([5]; ip): > 2300 mg/kg | LD50 ([5]; po): > 4000 mg/kg | number of incorrect responses, Session 1 [6, 10]: 4.00 | number of incorrect responses, Session 2 [6, 10]: 4.17 | number of incorrect responses, Session 3 [6, 10]: 3.00 | number of incorrect responses, Session 4 [6, 10]: 2.00 | number of incorrect responses, Session 5 [6, 10]: 1.83 | number of incorrect responses, Session 6 [6, 10]: 1.67 | dose inhibiting the increase in the number of incorrect responses induced by scopolamine ([6]; rat, i.p.): 1 mg/kg

COc1ccc(C2CNC(=O)C2)cc1OC1CCCC1 (single isomer, unassigned; (-)) [(-) Rolipram]
Survival Time ([1]; 0.3 mg/kg i.p.): 219.8 ± 6.3 s | dose showing the action of prolonging the survival time ([1]; mouse, i.p.): 0.3 mg/kg | activity of improving memory and learning deficits [2]: showed the activity of improving memory and learning deficits | potency order in improving memory and learning deficits [2]: more potent order of (-) rolipram, (±) rolipram and (+) rolipram | number of incorrect responses, Session 1 ([3]; 0.032 mg/kg i.p.): 5.50 | number of incorrect responses, Session 2 ([3]; 0.032 mg/kg i.p.): 2.00 | number of incorrect responses, Session 3 ([3]; 0.032 mg/kg i.p.): 2.00 | number of incorrect responses, Session 4 ([3]; 0.032 mg/kg i.p.): 1.33 | number of incorrect responses, Session 5 ([3]; 0.032 mg/kg i.p.): 1.00 | number of incorrect responses, Session 6 ([3]; 0.032 mg/kg i.p.): 0.83 | minimal effective dose ([3]; rat): 0.032 mg/kg | Number of Correct Choice [4, 11]: 6.9 ± 0.3 | Number of Incorrect Choice [4, 11]: 3.2 ± 1.1 | dose showing the activity of improving space recognition disorders induced by scopolamine ([4]; rat, p.o.): 0.01 mg/kg | safety (mouse): highly safe | number of incorrect responses, Session 1 [6, 12]: 4.50 | number of incorrect responses, Session 2 [6, 12]: 2.67 | number of incorrect responses, Session 3 [6, 12]: 1.50 | number of incorrect responses, Session 4 [6, 12]: 1.50 | number of incorrect responses, Session 5 [6, 12]: 1.17 | number of incorrect responses, Session 6 [6, 12]: 0.50 | dose inhibiting the increase in the number of incorrect responses induced by scopolamine ([6]; rat, i.p.): 0.032 mg/kg

CN1[C@@H]2C[C@@H](OC(=O)[C@H](CO)c3ccccc3)C[C@H]1[C@@H]1O[C@@H]12 [Scopolamine, scopolamine]
Number of Incorrect Choice ([4]; scopolamine alone 0.5 mg/kg i.p., Control 0.3 ± 0.1): 7.1 ± 0.9 | Number of Correct Choice ([4]; scopolamine alone 0.5 mg/kg i.p., Control 7.9 ± 0.2): 5.9 ± 0.2 | number of incorrect responses, Session 1 [6, 13]: 6.21 | number of incorrect responses, Session 2 [6, 13]: 4.74 | number of incorrect responses, Session 3 [6, 13]: 3.24 | number of incorrect responses, Session 4 [6, 13]: 3.11 | number of incorrect responses, Session 5 [6, 13]: 2.68 | number of incorrect responses, Session 6 [6, 13]: 2.32
